Assay results taken from ChEMBL document CHEMBL1147182, “Clubbed thiazoles by MAOS: a novel approach to cyclin-dependent kinase 5/p25 inhibitors as a potential treatment for Alzheimer's disease” (Bioorg Med Chem, 2007).

Columns and labels:
[1] = Cytotoxicity against VeroC1008 cells at 6.25 to 50 ug/ml by neutral red uptake assay; type: cell-based; settings: chlorocebus sabaeus, vero
[2] = target: Cyclin-dependent kinase 2/cyclin E (Homo sapiens, UniProt P24941); experiment: Inhibition of human cdk2/cyclin E by SPA; type: protein-complex assay
Homo sapiens = species on record: Homo sapiens; experiment: Selectivity for human cdk5/[…] over human cdk2/cyclin E
[3] = target: Cyclin-dependent kinase 5/CDK5 activator 1 (Homo sapiens, UniProt Q00535); experiment: Inhibition of human cdk5/p25 by SPA; type: protein-complex assay
Sequence of Cyclin-dependent kinase 5/CDK5 activator 1 (Q00535 whole entry): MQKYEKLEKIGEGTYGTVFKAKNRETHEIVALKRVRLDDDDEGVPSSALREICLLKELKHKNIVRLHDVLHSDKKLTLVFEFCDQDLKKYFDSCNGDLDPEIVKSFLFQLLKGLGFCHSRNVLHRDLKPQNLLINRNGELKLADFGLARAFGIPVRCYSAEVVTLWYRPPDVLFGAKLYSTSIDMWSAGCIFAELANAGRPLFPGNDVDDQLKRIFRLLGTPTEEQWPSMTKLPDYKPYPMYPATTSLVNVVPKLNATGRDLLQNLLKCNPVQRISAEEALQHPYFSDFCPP
Sequence of Cyclin-dependent kinase 5/CDK5 activator 1 (Q15078 whole entry, further chain): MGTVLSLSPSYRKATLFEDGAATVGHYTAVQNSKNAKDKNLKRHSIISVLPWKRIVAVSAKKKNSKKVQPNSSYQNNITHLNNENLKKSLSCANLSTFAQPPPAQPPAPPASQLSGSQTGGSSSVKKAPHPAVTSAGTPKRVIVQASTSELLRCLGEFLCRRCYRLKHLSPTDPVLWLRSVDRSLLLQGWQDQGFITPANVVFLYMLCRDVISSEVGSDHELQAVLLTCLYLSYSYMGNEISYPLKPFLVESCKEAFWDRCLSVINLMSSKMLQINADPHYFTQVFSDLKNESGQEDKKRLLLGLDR

## O=C(CSc1nnc(Cc2csc(NC(=O)CCl)n2)n1NC(=O)c1ccc(Cl)cc1)N/N=C/c1ccccc1
[1]
  Activity: Non-toxic
[2]
  IC50: 51 nM
Homo sapiens
  Ratio IC50: 1.2
[3]
  IC50: 42 nM

## NNC(=O)CSc1nnc(Cc2csc(NCCC(=O)O)n2)n1NC(=O)c1ccc(Cl)cc1
[1]
  Activity: Non-toxic
[2]
  IC50: 6340 nM
Homo sapiens
  Ratio IC50: 99
[3]
  IC50: 64 nM

## CC(=O)Nc1nc(Cc2nnc(S)n2N)cs1
[1]
  Activity: Non-toxic
[2]
  IC50: 50 nM
Homo sapiens
  Ratio IC50: 1
[3]
  IC50: 48 nM

## CC(=O)Nc1nc(Cc2nnc(SCC(=O)N/N=C/c3ccccc3)n2NC(=O)c2ccc(Cl)cc2)cs1
[1]
  Activity: Non-toxic
[2]
  IC50: 512 nM
Homo sapiens
  Ratio IC50: 17
[3]
  IC50: 30 nM

## CC(=O)Nc1nc(Cc2nnc(SCC#N)n2NC(=O)c2ccc(Cl)cc2)cs1
[1]
  Activity: Non-toxic
[2]
  IC50: 1140 nM
Homo sapiens
  Ratio IC50: 18.3
[3]
  IC50: 62 nM

## NNC(=O)CSc1nnc(Cc2csc(NC(=O)CCl)n2)n1NC(=O)c1ccc(Cl)cc1
[1]
  Activity: Non-toxic
[2]
  IC50: 890 nM
Homo sapiens
  Ratio IC50: 20
[3]
  IC50: 44 nM

## CC(=O)Nc1nc(Cc2nnc(SCC#N)n2NC(C)=O)cs1
[1]
  Activity: Non-toxic
[3]
  IC50: 463 nM

## O=C(CSc1nnc(Cc2csc(NC(=O)CCl)n2)n1NC(=O)c1ccccc1)N/N=C/c1ccccc1
[1]
  Activity: Non-toxic
[3]
  IC50: 467 nM

## O=C(O)CCNc1nc(Cc2nnc(SCC(=O)N/N=C/c3ccccc3)n2NC(=O)c2ccc(Cl)cc2)cs1
[1]
  Activity: Non-toxic
[3]
  IC50: 238 nM

## NNC(=O)CSc1nnc(Cc2csc(NC(=O)c3ccccc3)n2)n1NC(=O)c1ccccc1
[1]
  Activity: Non-toxic
[3]
  IC50: 268 nM

## O=C(Nc1nc(Cc2nnc(SCSc3nnc(Cc4csc(NC(=O)c5ccccc5)n4)n3NC(=O)c3ccc(Cl)cc3)n2NC(=O)c2ccc(Cl)cc2)cs1)c1ccccc1
[1]
  Activity: Non-toxic
[3]
  IC50: 640 nM

## COC(=O)CSc1nnc(Cc2csc(NC(=O)CCl)n2)n1NC(=O)c1ccccc1
[1]
  Activity: Non-toxic
[3]
  IC50: 674 nM

## O=C(O)CCNc1nc(Cc2nnc(SCC(=O)NNC(=O)CCl)n2NC(=O)c2ccccc2)cs1
[1]
  Activity: Non-toxic
[3]
  IC50: 462 nM

## CC(=O)Nn1c(Cc2csc(NC(=O)c3ccccc3)n2)nnc1SCC(=O)NNC(=O)c1ccccc1
[1]
  Activity: Non-toxic
[3]
  IC50: 413 nM

## O=C(O)CCNc1nc(Cc2nnc(SCC(=O)NNC(=O)c3ccccc3)n2NC(=O)c2ccccc2)cs1
[1]
  Activity: Non-toxic
[3]
  IC50: 432 nM

## CC(=O)Nc1nc(Cc2nnc(SCc3nnc(S)n3N)n2NC(C)=O)cs1
[1]
  Activity: Non-toxic
[3]
  IC50: 5250 nM

## O=C(O)CCNc1nc(Cc2nnc(SCC(=O)N/N=C/c3ccccc3)n2NC(=O)c2ccccc2)cs1
[1]
  Activity: Non-toxic
[3]
  IC50: 526 nM

## Nn1c(S)nnc1Cc1csc(NCCC(=O)O)n1
[1]
  Activity: Non-toxic
[3]
  IC50: 264 nM

## O=C(CSc1nnc(Cc2csc(NC(=O)c3ccccc3)n2)n1NC(=O)c1ccccc1)N/N=C/c1ccccc1
[1]
  Activity: Non-toxic
[3]
  IC50: 496 nM

## Nn1c(CSc2nnc(Cc3csc(NC(=O)c4ccccc4)n3)n2NC(=O)c2ccc(Cl)cc2)n[nH]c1=S
[1]
  Activity: Non-toxic
[3]
  IC50: 3180 nM

## O=C(Nc1nc(Cc2nnc(SCSc3nnc(Cc4csc(NC(=O)c5ccccc5)n4)n3NC(=O)c3ccccc3)n2NC(=O)c2ccccc2)cs1)c1ccccc1
[1]
  Activity: Non-toxic
[3]
  IC50: 698 nM

## CC(=O)Nc1nc(Cc2nnc(SCSc3nnc(Cc4csc(NC(C)=O)n4)n3NC(C)=O)n2NC(C)=O)cs1
[1]
  Activity: Non-toxic
[3]
  IC50: 847 nM

## Nn1c(S)nnc1CSc1nnc(Cc2csc(NC(=O)CCl)n2)n1NC(=O)c1ccccc1
[1]
  Activity: Non-toxic
[3]
  IC50: 6990 nM

## CC(=O)Nc1nc(Cc2nnc(SCSc3nnc(Cc4csc(NC(C)=O)n4)n3NC(=O)c3ccccc3)n2NC(=O)c2ccccc2)cs1
[1]
  Activity: Non-toxic
[3]
  IC50: 647 nM

## O=C(Nc1nc(Cc2nnc(S)n2NC(=O)c2ccc(Cl)cc2)cs1)c1ccccc1
[1]
  Activity: Non-toxic
[3]
  IC50: 186 nM

## N#CCSc1nnc(Cc2csc(NC(=O)c3ccccc3)n2)n1NC(=O)c1ccc(Cl)cc1
[1]
  Activity: Non-toxic
[2]
  IC50: 1340 nM
Homo sapiens
  Ratio IC50: 21
[3]
  IC50: 64 nM

## CC(=O)Nn1c(Cc2csc(NC(=O)c3ccccc3)n2)nnc1SCSc1nnc(Cc2csc(NC(=O)c3ccccc3)n2)n1NC(C)=O
[1]
  Activity: Non-toxic
[3]
  IC50: 764 nM

## CC(=O)Nc1nc(Cc2nnc(SCC(=O)NN)n2NC(=O)c2ccc(Cl)cc2)cs1
[1]
  Activity: Non-toxic
[2]
  IC50: 624 nM
Homo sapiens
  Ratio IC50: 8.6
[3]
  IC50: 72 nM

## O=C(O)CCNc1nc(Cc2nnc(SCSc3nnc(Cc4csc(NCCC(=O)O)n4)n3NC(=O)c3ccc(Cl)cc3)n2NC(=O)c2ccc(Cl)cc2)cs1
[1]
  Activity: Non-toxic
[3]
  IC50: 168 nM

## CC(=O)Nn1c(Cc2csc(NCCC(=O)O)n2)nnc1SCC(=O)NN
[1]
  Activity: Non-toxic
[3]
  IC50: 943 nM

## CC(=O)Nn1c(Cc2csc(NC(=O)CCl)n2)nnc1SCC(=O)NNC(=O)CCl
[1]
  Activity: Non-toxic
[3]
  IC50: 462 nM

## CC(=O)Nn1c(Cc2csc(NC(=O)CCl)n2)nnc1SCc1nnc(S)n1N
[1]
  Activity: Non-toxic
[3]
  IC50: 4640 nM

## O=C(CCl)NNC(=O)CSc1nnc(Cc2csc(NC(=O)CCl)n2)n1NC(=O)c1ccc(Cl)cc1
[1]
  Activity: Non-toxic
[3]
  IC50: 224 nM

## COC(=O)CSc1nnc(Cc2csc(NC(C)=O)n2)n1NC(C)=O
[1]
  Activity: Non-toxic
[3]
  IC50: 467 nM

## CC(=O)Nn1c(Cc2csc(NCCC(=O)O)n2)nnc1SCC#N
[1]
  Activity: Non-toxic
[3]
  IC50: 641 nM

## CC(=O)Nc1nc(Cc2nnc(SCC(=O)NNC(=O)c3ccccc3)n2NC(=O)c2ccc(Cl)cc2)cs1
[1]
  Activity: Non-toxic
[3]
  IC50: 534 nM

## NNC(=O)CSc1nnc(Cc2csc(NC(=O)c3ccccc3)n2)n1NC(=O)c1ccc(Cl)cc1
[1]
  Activity: Non-toxic
[2]
  IC50: 468 nM
Homo sapiens
  Ratio IC50: 13.8
[3]
  IC50: 34 nM

## CC(=O)Nc1nc(Cc2nnc(SCC(=O)NNC(=O)CCl)n2NC(=O)c2ccccc2)cs1
[1]
  Activity: Non-toxic
[3]
  IC50: 643 nM

## CC(=O)Nc1nc(Cc2nnc(SCC(=O)NNC(=O)c3ccccc3)n2NC(=O)c2ccccc2)cs1
[1]
  Activity: Non-toxic
[3]
  IC50: 421 nM

## Nn1c(CSc2nnc(Cc3csc(NC(=O)CCl)n3)n2NC(=O)c2ccc(Cl)cc2)n[nH]c1=S
[1]
  Activity: Non-toxic
[3]
  IC50: 3260 nM

## CC(=O)NNC(=O)CSc1nnc(Cc2csc(NCCC(=O)O)n2)n1NC(=O)c1ccc(Cl)cc1
[1]
  Activity: Non-toxic
[3]
  IC50: 352 nM

## Nn1c(Cc2csc(NC(=O)c3ccccc3)n2)n[nH]c1=S
[1]
  Activity: Non-toxic
[3]
  IC50: 630 nM

## CC(=O)Nn1c(Cc2csc(NC(=O)c3ccccc3)n2)nnc1SCC(=O)N/N=C/c1ccccc1
[1]
  Activity: Non-toxic
[3]
  IC50: 467 nM

## CC(=O)Nn1c(Cc2csc(NC(=O)c3ccccc3)n2)nnc1SCC#N
[1]
  Activity: Non-toxic
[3]
  IC50: 574 nM

## O=C(CCl)Nc1nc(Cc2nnc(S)n2NC(=O)c2ccc(Cl)cc2)cs1
[1]
  Activity: Non-toxic
[3]
  IC50: 642 nM

## CC(=O)Nn1c(Cc2csc(NC(=O)c3ccccc3)n2)nnc1SCC(=O)NN
[1]
  Activity: Non-toxic
[3]
  IC50: 186 nM

## CC(=O)NNC(=O)CSc1nnc(Cc2csc(NC(=O)c3ccccc3)n2)n1NC(=O)c1ccc(Cl)cc1
[1]
  Activity: Non-toxic
[3]
  IC50: 340 nM

## COC(=O)CSc1nnc(Cc2csc(NC(=O)c3ccccc3)n2)n1NC(=O)c1ccccc1
[1]
  Activity: Non-toxic
[3]
  IC50: 364 nM

## CC(=O)NNC(=O)CSc1nnc(Cc2csc(NC(C)=O)n2)n1NC(C)=O
[1]
  Activity: Non-toxic
[3]
  IC50: 384 nM

## COC(=O)CSc1nnc(Cc2csc(NC(C)=O)n2)n1NC(=O)c1ccccc1
[1]
  Activity: Non-toxic
[3]
  IC50: 587 nM

## CC(=O)Nn1c(Cc2csc(NC(=O)c3ccccc3)n2)nnc1SCC(=O)NNC(=O)CCl
[1]
  Activity: Non-toxic
[3]
  IC50: 356 nM
